Measurements from patent US7999137B2, “Pesticide bi-phenyl-amidine derivatives” (Bayer Cropscience AG, priority 2006, dated 2011).

Assay: logP by HPLC on reversed-phase column (C 18), EEC Directive 79/831 Annex V.A8
Type: physicochemical
Conditions: HPLC reversed-phase C 18; 40° C.; 0.1% aqueous formic acid and acetonitrile, linear gradient 10% to 90% acetonitrile
Description: Temperature: 40° C.; Mobile phases: 0.1% aqueous formic acid and acetonitrile; linear gradient from 10% acetonitrile to 90% acetonitrile.
Calibration was carried out using unbranched alkan-2-ones (comprising 3 to 16 carbon atoms) with known logP values (determination of the logP values by the retention times using linear interpolation between two successive alkanones).

Compound | log p (HCOOH)
CCCN(C)C=Nc1cc(C)c(-c2ccc(C(C)C)cc2)cc1C [Compound 156] | 2.70
CCN(C)C=Nc1ccc(-c2ccc(Cl)c(C(F)(F)F)c2)cc1F [Compound 20] | 2.15
CCc1cc(-c2ccc(F)cc2)ccc1N=CN(C)CC [Compound 23] | 1.79
CCN(C)C=Nc1cc(C)c(-c2ccc(C=NOC)cc2)cc1C [Compound 40] | 2.05
CCN(C)C=Nc1cc(C)c(-c2ccc(S(=O)(=O)N(C)C)cc2)cc1C [Compound 173] | 1.76
CCN(C)C=Nc1ccc(-c2ccc(OC)cc2)cc1C(F)(F)F [Compound 87] | 1.78
CCN(C)C=Nc1cc(C)c(-c2ccc(C(F)(F)F)c(Cl)c2)cc1C [Compound 142] | 2.59
CCc1cc(-c2ccc(F)c(F)c2)ccc1N=CN(C)CC [Compound 56] | 2.00
CCN(C)C=Nc1ccc(-c2ccc(F)c(Cl)c2)cc1Cl [Compound 3] | 1.92
CCN(C)C=Nc1ccc(-c2ccc(F)cc2)cc1C(F)(F)F [Compound 14] | 1.93
CCN(C)C=Nc1cc(C)c(-c2ccc(C(C)(C)C)cc2)cc1Cl [Compound 106] | 2.71
CCN(C)C=Nc1cc(C)c(-c2ccc(C[Si](C)(C)C)cc2)cc1C [Compound 166] | 3.18
Cc1cc(-c2ccc(C(C)(C)C)cc2)c(C)cc1N=CN1CCCCC1 [Compound 116] | 2.69
CCN(C)C=Nc1ccc(-c2ccc(F)c(F)c2)cc1Cl [Compound 68] | 1.83
CCN(C)C=Nc1ccc(-c2ccc(Cl)cc2Cl)cc1F [Compound 86] | 2.05
CCc1cc(-c2ccc(F)c(Cl)c2)ccc1N=CN(C)CC [Compound 10] | 2.17
CCN(C)C=Nc1cc(C)c(-c2cccc(Cl)c2)cc1C [Compound 133] | 2.15
CCc1cc(-c2cc(OC)c(OC)c(OC)c2)ccc1N=CN(C)CC [Compound 50] | 1.69
CCN(C)C=Nc1ccc(-c2ccc(Cl)c(C(F)(F)F)c2)cc1C [Compound 16] | 2.28
CCN(C)C=Nc1cc(C)c(-c2ccc(CC(C)C)cc2)cc1C [Compound 162] | 2.84
CCN(C)C=Nc1cc(C)c(-c2ccc(F)c(Cl)c2)cc1C [Compound 137] | 2.02
CCN(C)C=Nc1ccc(-c2cc(OC)c(OC)c(OC)c2)cc1C [Compound 29] | 1.56
C=CCN(C)C=Nc1cc(C)c(-c2ccc(C)c(Cl)c2)cc1C [Compound 148] | 2.48
CCc1cc(-c2ccc(Oc3ccccc3)cc2)ccc1N=CN(C)CC [Compound 59] | 2.32

Compound | log p (HCOOH)
CCCN(C)C=Nc1cc(C)c(-c2ccc(C(F)(F)F)c(Cl)c2)cc1C [Compound 143] | 2.69
CCc1cc(-c2ccc(OC)cc2)ccc1N=CN(C)CC [Compound 58] | 1.90
CCN(C)C=Nc1ccc(-c2ccc(F)c(C)c2)cc1Cl [Compound 67] | 2.10
CCN(C)C=Nc1ccc(-c2ccc(Cl)cc2Cl)cc1Cl [Compound 69] | 2.32
CCN(C)C=Nc1ccc(-c2ccc(OCc3ccccc3)cc2)cc1C [Compound 36] | 2.46
CCN(C)C=Nc1ccc(-c2ccc(Cl)cc2C)cc1C [Compound 111] | 2.23
CCN(C)C=Nc1ccc(-c2ccc(COC)cc2)cc1Cl [Compound 73] | 1.65
CCN(C)C=Nc1ccc(-c2ccc(C=NOC)cc2)cc1C(F)(F)F [Compound 76] | 2.01
CCN(C)C=Nc1cc(C)c(-c2ccc(F)cc2)cc1C [Compound 22] | 1.95
Cc1cc(-c2ccc(C(C)(C)C)cc2)c(C)cc1N=C1CCCN1 [Compound 120] | 2.53
Cc1cc(-c2ccc(C(F)(F)F)c(Cl)c2)c(C)cc1N=CN1CCCCC1 [Compound 145] | 2.78
CCN(C)C=Nc1cc(C)c(-c2ccc([Si](C)(C)C)cc2)cc1C [Compound 151] | 2.98
CCN(C)C=Nc1ccc(-c2ccc(Oc3ccccc3)cc2)cc1Cl [Compound 71] | 2.45
CCN(C)C=Nc1cc(C)c(-c2ccccc2)cc1C [Compound 134] | 1.77
CCN(C)C=Nc1cc(C)c(-c2ccc(C3CCCC3)cc2)cc1C [Compound 167] | 2.94
CCN(C)C=Nc1cc(C)c(-c2ccc(Br)cc2)cc1C [Compound 175] | 2.20
CCN(C)C(C)=Nc1cc(C)c(-c2ccc(C(C)(C)C)cc2)cc1C [Compound 176] | 2.77
CCN(C)C=Nc1cc(C)c(-c2ccc(Cl)c(C)c2)cc1C [Compound 109] | 2.27
CCN(C)C=Nc1ccc(-c2ccc(Cl)cc2C)cc1Cl [Compound 113] | 2.03
C=CCN(C)C=Nc1cc(C)c(-c2ccc([Si](C)(C)C)cc2)cc1C [Compound 153] | 3.08
CCN(C)C=Nc1cc(C)c(-c2ccc(Cl)c(F)c2)cc1C [Compound 41] | 2.32
CCN(C)C=Nc1cc(OC)c(-c2ccc(C)cc2)cc1OC [Compound 98] | 1.89
CCc1cc(-c2ccc(C(C)(C)C)cc2)ccc1N=CN(C)CC [Compound 7] | 2.66
CCc1cc(-c2ccc(Cl)c(C(F)(F)F)c2)ccc1N=CN(C)CC [Compound 21] | 2.39

Compound | log p (HCOOH)
CCN(C)C=Nc1ccc(-c2ccc(OC)cc2)cc1Cl [Compound 70] | 1.71
CCN(C)C=Nc1ccc(-c2ccc(Cl)c(Cl)c2)cc1C [Compound 32] | 2.21
COc1ccc(-c2cc(OC)c(N=CN(C)C(C)C)cc2OC)cc1Cl [Compound 102] | 1.95
CCN(C)C=Nc1ccc(-c2ccc(F)cc2)cc1Cl [Compound 13] | 1.69
CCc1cc(-c2ccc(COC)cc2)ccc1N=CN(C)CC [Compound 61] | 1.67
CCN(C)C=Nc1ccc(-c2ccc(C(C)(C)C)cc2)cc1F [Compound 6] | 2.29
CCN(C)C=Nc1cc(C)c(-c2ccc(C(C)(C)C)c(Br)c2)cc1C [Compound 164] | 3.13
CCN(C)C=Nc1cc(C)c(-c2ccc(Cl)cc2C)cc1C [Compound 112] | 2.24
CCN(C)C=Nc1cc(C)c(-c2ccc(Cl)c(C(F)(F)F)c2)cc1C [Compound 17] | 2.40
CCN(C)C=Nc1cc(C)c(-c2ccc(C)c(Cl)c2)cc1C [Compound 146] | 2.37
CCN(C)C=Nc1ccc(-c2ccc(F)c(C)c2)cc1C(F)(F)F [Compound 82] | 2.20
CCN(C)C=Nc1ccc(-c2ccc(F)cc2)cc1F [Compound 15] | 1.50
Cc1cc(-c2ccc(C(C)C)cc2)c(C)cc1N=CN1CCCCC1 [Compound 158] | 2.60
CCc1cc(-c2ccc(F)c(C)c2)ccc1N=CN(C)CC [Compound 55] | 1.98
CCN(C)C=Nc1cc(C)c(-c2ccc(OC)c(C)c2)cc1C [Compound 114] | 2.05
CCN(C)C=Nc1ccc(-c2ccc(F)c(Cl)c2)cc1C(F)(F)F [Compound 4] | 2.36
CCN(C)C=Nc1ccc(-c2ccc(C(F)(F)F)cc2)cc1Cl [Compound 24] | 1.99
CCN(C)C=Nc1cc(C)c(-c2cc(OC)c(OC)c(OC)c2)cc1C [Compound 39] | 1.68
Cc1cc(-c2ccc(C(C)(C)C)cc2)c(C)cc1N=CN1CCOCC1 [Compound 118] | 2.53
CCN(C)C=Nc1ccc(-c2ccc(F)cc2)cc1C [Compound 126] | 1.84
CCN(C)C=Nc1cc(C)c(-c2ccc(C(C)(CC)OC)cc2)cc1C (stereo not shown) [Compound 159] | 2.38
CCN(C)C=Nc1cc(C)c(-c2ccc(C#N)cc2)cc1C [Compound 136] | 1.54
CCN(C)C=Nc1ccc(-c2ccc(OC)c(OC)c2)cc1C [Compound 38] | 1.49

Same assay, conditions: reversed-phase HPLC column (C 18); HPLC reversed-phase C 18; 40° C.; 0.1% aqueous formic acid and acetonitrile, linear gradient 10% to 90% acetonitrile; read-out: log p (HCOOH)

Compound | chromatographic logP
CCN(C)/C=N/c1cc(C)c(-c2ccc(C(C)(C)C)cc2)cc1C [Compound 8, N′-(4′-tert-butyl-2,5-dimethylbiphenyl-4-yl)-N-ethyl-N-methylimidoformamide] | 2.67
Cc1cc(-c2ccc(C(C)(C)C)cc2)c(C)cc1N=C1CCCCN1 [Compound 121, 4′-tert-butyl-2,5-dimethyl-N-[piperidin-2-ylidene]biphenyl-4-amine] | 2.6

Same assay, conditions: reversed-phase HPLC column (C 18); pH 2.3; HPLC, 0.1% aqueous formic acid and acetonitrile, 40° C.; read-out: log P (pH 2.3)

Compound | chromatographic logP
Cc1cc(-c2ccc(C(C)(C)C)cc2)c(C)cc1N [Intermediate (VII-1), 4′-tert-butyl-2,5-dimethylbiphenyl-4-amine] | 3.65
CCN(C)/C=N/c1cc(C)c(-c2ccc(C(C)(C)C)cc2)cc1C [Compound 8, N′-(4′-tert-butyl-2,5-dimethylbiphenyl-4-yl)-N-ethyl-N-methylimidoformamide] | 2.67
Cc1cc(-c2ccc(C(C)(C)C)cc2)c(C)cc1N=C1CCCCN1 [Compound 121, 4′-tert-butyl-2,5-dimethyl-N-[piperidin-2-ylidene]biphenyl-4-amine] | 2.6
